According to patent publication US12624034B2, “Non-covalent modifiers of AKT1 and uses thereof” (Terremoto Biosciences, Inc., priority 2023, dated 2026):

Assays:
AKT1 WT = target: T1, AKT1 WT (Homo sapiens, UniProt P31749); test: Live cell AKT1 WT target engagement by NanoBRET competitive probe displacement in HEK293 cells; assay type: binding; conditions: NanoBRET live cell target engagement, HEK293 cells, 2 h at 37° C.; read-out: AKT1 WT IC50
T1 construct: expressed in transfected cells; host or cells: HEK293
T1 sequence (P31749 whole entry): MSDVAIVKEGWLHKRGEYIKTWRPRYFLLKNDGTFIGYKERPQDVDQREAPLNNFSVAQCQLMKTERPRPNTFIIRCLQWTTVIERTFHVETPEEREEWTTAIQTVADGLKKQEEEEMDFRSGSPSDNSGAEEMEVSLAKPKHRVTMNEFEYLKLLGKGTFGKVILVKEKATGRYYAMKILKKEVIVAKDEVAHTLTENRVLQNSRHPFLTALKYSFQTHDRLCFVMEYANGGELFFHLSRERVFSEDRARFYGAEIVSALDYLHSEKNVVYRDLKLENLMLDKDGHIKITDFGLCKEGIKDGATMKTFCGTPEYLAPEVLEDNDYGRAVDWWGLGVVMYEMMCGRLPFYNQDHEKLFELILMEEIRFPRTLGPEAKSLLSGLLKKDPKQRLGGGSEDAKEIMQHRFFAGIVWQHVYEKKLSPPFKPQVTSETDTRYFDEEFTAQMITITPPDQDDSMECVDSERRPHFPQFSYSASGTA

AKT2 = target: T2, AKT2 (Homo sapiens, UniProt P31751); test: Live cell AKT2 target engagement by NanoBRET competitive probe displacement in HEK293 cells; assay type: binding; conditions: NanoBRET live cell target engagement, HEK293 cells, 2 h at 37° C.; read-out: AKT2 IC50
T2 construct: expressed in transfected cells; host or cells: HEK293
T2 sequence (P31751 whole entry): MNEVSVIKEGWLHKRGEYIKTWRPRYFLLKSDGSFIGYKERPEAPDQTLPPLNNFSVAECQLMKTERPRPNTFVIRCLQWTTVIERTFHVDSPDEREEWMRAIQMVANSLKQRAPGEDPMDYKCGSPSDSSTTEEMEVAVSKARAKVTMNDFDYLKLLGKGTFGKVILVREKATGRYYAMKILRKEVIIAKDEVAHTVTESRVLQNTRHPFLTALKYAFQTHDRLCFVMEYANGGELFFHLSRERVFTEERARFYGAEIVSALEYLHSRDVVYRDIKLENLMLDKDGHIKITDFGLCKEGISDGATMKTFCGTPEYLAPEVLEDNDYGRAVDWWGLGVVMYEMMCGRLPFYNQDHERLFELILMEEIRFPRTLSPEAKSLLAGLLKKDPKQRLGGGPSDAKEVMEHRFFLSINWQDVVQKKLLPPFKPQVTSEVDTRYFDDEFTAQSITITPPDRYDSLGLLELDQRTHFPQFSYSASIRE

| Structure (SMILES) | IC50 (AKT1 WT) [nM] | IC50 (AKT2) [nM] |
| --- | --- | --- |
| Cc1nc2ncccc2c(=O)n1[C@H]1CCc2cc(-n3c(-c4cccnc4N)nc4ccc(-n5cccn5)nc43)ccc21 [Compound 180] | 91.8 | 1150 |
| Cn1ccc(C#Cc2ncccc2C(=O)N[C@H]2CCc3cc(-n4c(-c5cccnc5N)nc5ccc(-n6cccn6)nc54)ccc32)n1 [Compound 181] | 78.4 | 3680 |
| Cn1ccc(C#Cc2cc(C(=O)N[C@H]3CCc4cc(-n5c(-c6cccnc6N)nc6ccc(-n7cccn7)nc65)ccc43)ccn2)n1 [Compound 182] | 11.5 | 219 |
| Cc1cnc(C)c(C(=O)N[C@H]2CCc3cc(-n4c(-c5cccnc5N)nc5ccc(-n6cccn6)nc54)ccc32)n1 [Compound 183] | 330 | > 10000 |
| Cc1cccnc1C(=O)N[C@H]1CCc2cc(-n3c(-c4cccnc4N)nc4ccc(-n5cccn5)nc43)ccc21 [Compound 184] | 114 | 4740 |
| Cc1cnc(C(=O)N[C@H]2CCc3cc(-n4c(-c5cccnc5N)nc5ccc(-n6cccn6)nc54)ccc32)cn1 [Compound 185] | 65.3 | 1540 |
| Cc1cncc(C(=O)N[C@H]2CCc3cc(-n4c(-c5cccnc5N)nc5ccc(-n6cccn6)nc54)ccc32)n1 [Compound 186] | 76.3 | 3270 |
| Cc1ncccc1C(=O)N[C@@H]1c2ccc(-n3c(-c4cccnc4N)nc4ccc(-n5cccn5)nc43)cc2CC1(F)F [Compound 187] | 6.73 | 21.3 |
| Nc1ncccc1-c1nc2ccc(-n3cccn3)nc2n1-c1ccc2c(c1)CC[C@@H]2n1ccnn1 [Compound 188] | 20 | 650 |
| Nc1ncccc1-c1nc2ccc(-n3cccn3)nc2n1-c1ccc2c(c1)CC[C@@H]2NC(=O)c1ccc2[nH][nH]c(=O)c2c1 [Compound 189] | 554 | 2850 |
| Nc1ncccc1-c1nc2ccc(-n3cccn3)nc2n1-c1ccc2c(c1)CC[C@@H]2NC(=O)c1ccc2[nH]nnc2c1 [Compound 190] | 25.5 | 122 |
| Nc1ncccc1-c1nc2ccc(-n3cccn3)nc2n1-c1ccc2c(c1)CC[C@@H]2NC(=O)c1ccc2[nH]c(=O)oc2c1 [Compound 191] | 9.23 | 78.6 |
| Nc1ncccc1-c1nc2ccc(-n3cccn3)nc2n1-c1ccc2c(c1)CC[C@@H]2NC(=O)c1cnc2[nH]ncc2c1 [Compound 192] | 9.54 | 86.4 |
| Nc1ncccc1-c1nc2ccc(-n3cccn3)nc2n1-c1ccc2c(c1)CC[C@@H]2NC(=O)c1ccc2[nH]ncc2c1 [Compound 193] | 6.71 | 42.3 |
| Nc1ncccc1-c1nc2ccc(-n3cccn3)nc2n1-c1ccc2c(c1)CC[C@@H]2NC(=O)c1ccc2c(c1)CC(=O)N2 [Compound 194] | 9.37 | 39.5 |
| CS(=O)(=O)Nc1ccc(C(=O)N[C@H]2CCc3cc(-n4c(-c5cccnc5N)nc5ccc(-n6cccn6)nc54)ccc32)cc1 [Compound 195] | 12.4 | 48.9 |
| CC(=O)Nc1ccc(C(=O)N[C@H]2CCc3cc(-n4c(-c5cccnc5N)nc5ccc(-n6cccn6)nc54)ccc32)cc1 [Compound 196] | 9.31 | 72.4 |
| Cn1ccc(-c2cn([C@H]3CCc4cc(-n5c(-c6cccnc6N)nc6ccc(-n7cccn7)nc65)ccc43)nn2)n1 [Compound 197] | 14.7 | 95.3 |
| Nc1ncccc1-c1nc2ccc(-n3cccn3)nc2n1-c1ccc2c(c1)CC[C@@H]2n1cc(-c2ccncc2)nn1 [Compound 198] | 9.5 | 113 |
| Nc1ncccc1-c1nc2ccc(-n3cccn3)nc2n1-c1ccc2c(c1)CC[C@@H]2n1cc(-c2cccnc2)nn1 [Compound 199] | 10.6 | 83.1 |

| Structure (SMILES) | IC50 (AKT1 WT) [nM] | IC50 (AKT2) [nM] |
| --- | --- | --- |
| Nc1ncccc1-c1nc2ccc(-n3cccn3)nc2n1-c1ccc2c(c1)CC[C@@H]2n1cc(-c2ccccn2)nn1 [Compound 200] | 14.7 | 212 |
| Nc1ncccc1-c1nc2ccc(-n3cccn3)nc2n1-c1ccc2c(c1)CC[C@@H]2NC(=O)c1ccnc(OC2CC2)c1 [Compound 201] | 9.27 | 66.5 |
| Nc1ncccc1-c1nc2ccc(-n3cccn3)nc2n1-c1ccc2c(c1)CC[C@@H]2NC(=O)c1ccnc(OC(F)F)c1 [Compound 202] | 5.59 | 29.4 |
| COCCOc1cc(C(=O)N[C@H]2CCc3cc(-n4c(-c5cccnc5N)nc5ccc(-n6cccn6)nc54)ccc32)ccn1 [Compound 203] | 10.5 | 99.6 |
| CCc1cc(C(=O)N[C@H]2CCc3cc(-n4c(-c5cccnc5N)nc5ccc(-n6cccn6)nc54)ccc32)ccn1 [Compound 204] | 9.42 | 53.1 |
| CN(C)Cc1cc(C(=O)N[C@H]2CCc3cc(-n4c(-c5cccnc5N)nc5ccc(-n6cccn6)nc54)ccc32)ccn1 [Compound 205] | 168 | 2340 |
| Cn1ccc(CN[C@H]2CCc3cc(-n4c(-c5cccnc5N)nc5ccc(-n6cccn6)nc54)ccc32)n1 [Compound 206] | 121 | 1780 |
| Cc1cnc(C(=O)N[C@H]2CCc3cc(-n4c(-c5cccnc5N)nc5ccc(-n6cccn6)nc54)ccc32)c(C)n1 [Compound 207] | 151 | 2520 |
| Nc1ncccc1-c1nc2ccc(-n3cccn3)nc2n1-c1ccc2c(c1)CC(F)[C@@H]2NC1CN(c2ccccn2)C1 (stereo partly drawn) [Compound 208] | 32.4 | 1030 |
| Nc1ncccc1-c1nc2ccc(-n3cccn3)nc2n1-c1ccc2c(c1)CC[C@@H]2NC(=O)c1ccnc(C#Cc2ccccc2)c1 [Compound 209] | 37.7 | 316 |
| Nc1ncccc1-c1nc2ccc(-n3cccn3)nc2n1-c1ccc2c(c1)CC[C@@H]2NC(=O)c1cccnc1C#Cc1ccccc1 [Compound 210] | 95.8 | 596 |
| CC#Cc1ncccc1C(=O)N[C@H]1CCc2cc(-n3c(-c4cccnc4N)nc4ccc(-n5cccn5)nc43)ccc21 [Compound 211] | 32.1 | 824 |
| Cc1ncccc1C(=O)N[C@H]1CCc2cc(-n3c(-c4cccnc4N)nc4c(F)cc(-n5cccn5)nc43)ccc21 [Compound 212] | 57.8 | 158 |
| Cc1ncccc1C(=O)N[C@H]1CCc2cc(-n3c(-c4cccnc4N)nc4c(C(F)F)cc(-n5cccn5)nc43)ccc21 [Compound 213] | 13.8 | 60.6 |
| Cn1nc(C(=O)N[C@H]2CCc3cc(-n4c(-c5cccnc5N)nc5ccc(-n6cccn6)nc54)ccc32)cc1C#N [Compound 214] | 56.9 | 2690 |
| Nc1ncccc1-c1nc2ccc(-n3cccn3)nc2n1-c1ccc2c(c1)CC[C@@H]2NC(=O)c1ccn(C2CC2)n1 [Compound 215] | 21.5 | 381 |
| COc1cc(C(=O)N[C@H]2CCc3cc(-n4c(-c5cccnc5N)nc5ccc(-n6cccn6)nc54)ccc32)nn1C [Compound 216] | 58.4 | 1390 |
| Cc1nncn1[C@H]1CCc2cc(-n3c(-c4cccnc4N)nc4ccc(-n5cccn5)nc43)ccc21 [Compound 217, (S)-3-(3-(1-(3-methyl-4H-1,2,4-triazol-4-yl)-2,3-dihydro-1H-inden-5-yl)-5-(1H-pyrazol-1-yl)-3H-imidazo[4,5-b]pyridin-2-yl)pyridin-2-amine] | 38.9 | 328 |
| CN(C)Cc1cn([C@H]2CCc3cc(-n4c(-c5cccnc5N)nc5ccc(-n6cccn6)nc54)ccc32)nn1 [Compound 218] | 643 | 4400 |
